Experimental data as given in patent US9751837B2, “Kinase inhibitors” (RESPIVERT LIMITED, priority 2014, dated 2017).
≈ marks a conversion by molar mass, not a printed value. Counter-ions that a name gives are not always drawn.

Test: Solubility in fasted-state simulated colonic fluid (FaSSCoF) at pH 6.5
Assay type: physicochemical
Conditions: 25 °C, pH 6.5, fassgf or other biorelevant, thermodynamic from solid
Procedure: The solubilities of compounds of the invention in FaSSCoF at pH 6.5 are determined using a modification of a previously-reported procedure (Vertzoni, M., et al. Pharm. Res. 2010, 27, 2187-2196). In place of the bile salt extract employed in the original procedure (which extract is no longer available), the modified procedure uses a mixture of sodium taurochlorate (0.15 g), glycocholic acid (0.15 g), ursodeoxycholic acid (0.05 g), cholic acid (0.05 g), and glycodeoxycholic acid (0.05 g). These five bile acids are ground together with a mortar and pestle to produce a fine white powder that is incorporated into the FaSSCoF, as outlined below.
Tris(hydroxymethyl)aminomethane (Tris; 0.275 g) and maleic acid (0.44 g) are dissolved in water (35 mL) to give a solution whose pH is adjusted to 6.5 by treatment with 0.5M NaOH (ca. 12 mL). The solution is then made up to 50 mL with water. A portion of this Tris/maleate buffer solution (ca. 25 mL) is added to a 0.5 L round-bottomed flask, before being treated with 0.00565 g of the bile acid mixture described above. Solutions of phosphatidylcholine (0.0111 g) in DCM (0.15 mL) and palmitic acid (0.0013 g) in DCM (0.15 mL) are added, then the organic solvent is evaporated off under reduced pressure at 40° C. until a clear solution, with no perceptible DCM odour, is achieved. The volume of the evaporated solution is adjusted to 50 mL by addition of the remainder of Tris/maleate buffer, then BSA (0.115 g) is added, before being dissolved by gentle agitation.
Test compounds are suspended in the pH 6.5 FaSSCoF medium to give a maximum final concentration of 2-10 mg/mL. The suspensions are equilibrated at 25° C. for 24 h, before being filtered through a glass fibre C filter. The filtrates are then diluted as appropriate for injection and quantification by HPLC with reference to a standard. Different volumes of the standard, diluted and undiluted sample solutions are injected and the solubilities are calculated using the peak areas determined by integration of the peak found at the same retention time as the principal peak in the standard injection.

[1] = pH 6.5 FaSSCoF Solubility (mg/mL) Run 1
[2] = pH 6.5 FaSSCoF Solubility (mg/mL) Run 2

Row | solubility thermodynamic at 24 h [1] | solubility thermodynamic at 24 h [2] | solubility thermodynamic at 24 h (pH 6.5 FaSSCoF Solubility (mg/mL) Run 3) | solubility thermodynamic at 24 h (pH 6.5 FaSSCoF Solubility (mg/mL) Run 4) | SMILES
1 | 0.204 mg/mL | 0.198 mg/mL |  |  | COc1cc(Nc2cc(Oc3ccc(NC(=O)Nc4cc(C(C)(C)C)cc(NS(C)(=O)=O)c4OC)c4ccccc34)ccn2)ccc1C(=O)NCC(=O)O [17(ar) (hydrochloride salt), 2-(4-((4-((4-(3-(5-(tert-Butyl)-2-methoxy-3-(methylsulfonamido)phenyl)ureido)naphthalen-1-yl)oxy)pyridin-2-yl)amino)-2-methoxybenzamido)acetic acid]
2 | 0.029 mg/mL | 0.028 mg/mL |  |  | COc1cc(Nc2cc(Oc3ccc(NC(=O)Nc4cc(C(C)(C)C)cc(NS(C)(=O)=O)c4OC)c4ccccc34)ccn2)ccc1C(=O)NCCC(=O)O [17(ay) (hydrochloride salt), 3-(4-((4-((4-(3-(5-(tert-Butyl)-2-methoxy-3-(methylsulfonamido)phenyl)ureido)-naphthalen-1-yl)oxy)pyridin-2-yl)amino)-2-methoxybenzamido)propanoic acid]
3 | 1.31 mg/mL |  |  |  | COc1cc(Nc2cc(Oc3ccc(NC(=O)Nc4cc(C(C)(C)C)cc(NS(C)(=O)=O)c4OC)c4ccccc34)ccn2)ccc1C(=O)N[C@@H](CO)C(=O)O [17(bj) (sodium salt), (S)-2-(4-((4-((4-(3-(5-(tert-Butyl)-2-methoxy-3-(methylsulfonamido)phenyl)ureido)-naphthalen-1-yl)oxy)pyridin-2-yl)amino)-2-methoxybenzamido)-3-hydroxypropanoic acid]
4 | 0.008 mg/mL (≈ 10.8 µM) | 0.006 mg/mL (≈ 8.08 µM) |  |  | COc1cc(Nc2cc(Oc3ccc(NC(=O)Nc4cc(C(C)(C)C)cc(NS(C)(=O)=O)c4OC)c4ccccc34)ccn2)ccc1C(=O)NCCO [17(bn), 4-((4-((4-(3-(5-(tert-Butyl)-2-methoxy-3-(methylsulfonamido)phenyl)ureido)naphthalen-1-yl)oxy)pyridin-2-yl)amino)-N-(2-hydroxyethyl)-2-methoxybenzamide]
5 | 0.009 mg/mL (≈ 10.5 µM) | 0.008 mg/mL (≈ 9.29 µM) |  |  | COc1cc(Nc2cc(Oc3ccc(NC(=O)Nc4cc(C(C)(C)C)cc(NS(C)(=O)=O)c4OC)c4ccccc34)ccn2)ccc1C(=O)N[C@H]1C(O)O[C@H](CO)[C@@H](O)[C@@H]1O (stereo partly drawn) [17(br), 4-((4-((4-(3-(5-(tert-Butyl)-2-methoxy-3-(methylsulfonamido)phenyl)ureido)naphthalen-1-yl)oxy)pyridin-2-yl)amino)-2-methoxy-N-((3R,4R,5S,6R)-2,4,5-trihydroxy-6-(hydroxymethyl)tetrahydro-2H-pyran-3-yl)benzamide]
6 | 0.006 mg/mL | 0.006 mg/mL |  |  | COc1cc(Nc2cc(Oc3ccc(NC(=O)Nc4cc(C(C)(C)C)cc(NS(C)(=O)=O)c4OC)c4ccccc34)ccn2)ccc1C(=O)NCCCC[C@H](N)C(=O)O [17(bu) (dihydrochloride salt), (S)-2-Amino-6-(4-((4-((4-(3-(5-(tert-butyl)-2-methoxy-3-(methylsulfonamido)phenyl)-ureido)naphthalen-1-yl)oxy)pyridin-2-yl)amino)-2-methoxybenzamido)hexanoic acid]
7 | 0.051 mg/mL | 0.049 mg/mL |  |  | COc1cc(Nc2cc(Oc3ccc(NC(=O)Nc4cc(C(C)(C)C)cc(NS(C)(=O)=O)c4OC)c4ccccc34)ccn2)ccc1C(=O)NCCNC(=O)CCC(=O)O [17(cd) (hydrochloride salt), 4-((2-(4-((4-((4-(3-(5-(tert-Butyl)-2-methoxy-3-(methylsulfonamido)phenyl)ureido)-naphthalen-1-yl)oxy)pyridin-2-yl)amino)-2-methoxybenzamido)ethyl)amino)-4-oxobutanoic acid]
8 | 0.003 mg/mL (≈ 3.28 µM) | 0.001 mg/mL (≈ 1.09 µM) |  |  | COc1cc(Nc2cc(Oc3ccc(NC(=O)Nc4cc(C(C)(C)C)cc(NS(C)(=O)=O)c4OC)c4ccccc34)ccn2)ccc1C(=O)NCCC(=O)N1C[C@H](O)[C@@H](O)[C@H](O)[C@H]1CO [17(cf), 4-((4-((4-(3-(5-(tert-Butyl)-2-methoxy-3-(methylsulfonamido)phenyl)ureido)naphthalen-1-yl)oxy)pyridin-2-yl)amino)-2-methoxy-N-(3-oxo-3-((2R,3R,4R,5S)-3,4,5-trihydroxy-2-(hydroxymethyl)piperidin-1-yl)propyl)benzamide]

The next lines start with the molecule.

Row | SMILES | solubility thermodynamic at 24 h [1] | solubility thermodynamic at 24 h [2] | solubility thermodynamic at 24 h (pH 6.5 FaSSCoF Solubility (mg/mL) Run 3) | solubility thermodynamic at 24 h (pH 6.5 FaSSCoF Solubility (mg/mL) Run 4)
9 | COc1c(NC(=O)Nc2ccc(Oc3ccnc(Nc4ccc(C(=O)O)c(N(C)C)c4)c3)c3ccccc23)cc(C(C)(C)C)cc1NS(C)(=O)=O [17(am), 4-[[4-[[4-[[5-tert-butyl-3-(methanesulfonamido)-2-methoxy-phenyl]carbamoylamino]-1-naphthyl]oxy]-2-pyridyl]amino]-2-(dimethylamino)benzoic acid] | 0.01 mg/mL (≈ 14 µM) | 0.012 mg/mL (≈ 16.8 µM) |  | 
10 | COc1cc(Nc2cc(Oc3ccc(NC(=O)Nc4cc(C(C)(C)C)cc(NS(C)(=O)=O)c4OC)c4ccccc34)ccn2)cc(OC)c1C(=O)NCCC1CCN(C)CC1 [17(at), 4-((4-((4-(3-(5-(tert-Butyl)-2-methoxy-3-(methylsulfonamido)phenyl)ureido)naphthalen-1-yl)oxy)pyridin-2-yl)amino)-2,6-dimethoxy-N-(2-(1-methylpiperidin-4-yl)ethyl)benzamide] | 0.009 mg/mL (≈ 10.5 µM) | 0.009 mg/mL (≈ 10.5 µM) |  | 
11 | CCC(=O)NS(=O)(=O)c1ccc(Nc2nccc(Oc3ccc(NC(=O)Nc4cc(C(C)(C)C)cc(NS(C)(=O)=O)c4OC)c4ccccc34)n2)cc1OC [17(bk) (sodium salt), N-((4-((4-((4-(3-(5-(tert-Butyl)-2-methoxy-3-(methylsulfonamido)phenyl)ureido)-naphthalen-1-yl)oxy)pyrimidin-2-yl)amino)-2-methoxyphenyl)sulfonyl)propionamide] | 0.042 mg/mL | 0.037 mg/mL |  | 
12 | COc1cc(Nc2cc(Oc3ccc(NC(=O)Nc4cc(C(C)(C)C)cc(NS(C)(=O)=O)c4OC)c4ccccc34)ccn2)ccc1C(=O)NC[C@H](O)[C@@H](O)[C@H](O)[C@H](O)CO [17(bw), 4-((4-((4-(3-(5-(tert-Butyl)-2-methoxy-3-(methylsulfonamido)phenyl)ureido)naphthalen-1-yl)oxy)pyridin-2-yl)amino)-2-methoxy-N-((2S,3R,4R,5R)-2,3,4,5,6-pentahydroxyhexyl)benzamide] | 0.002 mg/mL (≈ 2.32 µM) | 0.003 mg/mL (≈ 3.48 µM) |  | 
13 | COc1cc(Nc2cc(Oc3ccc(NC(=O)Nc4cc(C(C)(C)C)cc(NS(C)(=O)=O)c4OC)c4ccccc34)ccn2)cc(OC)c1C(=O)NC1CCN(C)CC1 [17(bz), 4-((4-((4-(3-(5-(tert-Butyl)-2-methoxy-3-(methylsulfonamido)phenyl)ureido)naphthalen-1-yl)oxy)pyridin-2-yl)amino)-2,6-dimethoxy-N-(1-methylpiperidin-4-yl)benzamide] | 0.021 mg/mL (≈ 25.4 µM) | 0.026 mg/mL (≈ 31.5 µM) | 0.014 mg/mL (≈ 16.9 µM) | 0.019 mg/mL (≈ 23 µM)
14 | COc1cc(Nc2cc(Oc3ccc(NC(=O)Nc4cc(C(C)(C)C)cc(NS(C)(=O)=O)c4OC)c4ccccc34)ccn2)cc(OC)c1C(=O)N1CCN(CCN(C)C)CC1 [17(cg), N-(5-(tert-Butyl)-3-(3-(4-((2-((4-(4-(2-(dimethylamino)ethyl)piperazine-1-carbonyl)-3,5-dimethoxyphenyl)amino)pyridin-4-yl)oxy)naphthalen-1-yl)ureido)-2-methoxyphenyl)methane sulfonamide] | 0.002 mg/mL (≈ 2.3 µM) |  |  | 
15 | COc1cc(Nc2cc(Oc3ccc(NC(=O)Nc4cc(C(C)(C)C)cc(NS(C)(=O)=O)c4OC)c4ccccc34)ccn2)ccc1C(=O)NCCN1CCN(C(=O)CN(C)C)CC1 [17(cj), 4-((4-((4-(3-(5-(tert-Butyl)-2-methoxy-3-(methylsulfonamido)phenyl)ureido)naphthalen-1-yl)oxy)pyridin-2-yl)amino)-N-(2-(4-(2-(dimethylamino)acetyl)piperazin-1-yl)ethyl)-2-methoxybenzamide] | 0.006 mg/mL (≈ 6.7 µM) | 0.006 mg/mL (≈ 6.7 µM) |  | 
16 | COc1cc(Nc2cc(Oc3ccc(NC(=O)Nc4cc(C(C)(C)C)cc(NS(C)(=O)=O)c4OC)c4ccccc34)ccn2)cc(OC)c1C(=O)NCC(CO)(CO)CO [17(cn), 4-((4-((4-(3-(5-(tert-Butyl)-2-methoxy-3-(methylsulfonamido)phenyl)ureido)naphthalen-1-yl)oxy)pyridin-2-yl)amino)-N-(3-hydroxy-2,2-bis(hydroxymethyl)propyl)-2,6-dimethoxybenzamide] | 0.025 mg/mL (≈ 29.5 µM) | 0.017 mg/mL (≈ 20.1 µM) |  | 
